Measurements reported in patent US10202391B2, “Chemical compounds” (AstraZeneca AB, priority 2015, dated 2019).

Columns and labels:
ERK2 = biological target: T1, ERK2 (Homo sapiens, UniProt P28482); experiment: ERK2 Rapidfire Mass Spectrometry Inhibition of Catalysis Assay; format: biochemical; details: 1.2 nM ERK2, 16 μM Erktide, 120 μM ATP (measured Km), 15 minute pre-incubation; read-out: ERK2 Mass Spectrometry Enzyme IC50
T1 construct: made in house
Protocol: (§1) All compounds or DMSO (dimethyl sulphoxide) for the ERK2 Mass Spectrometry and A375 phospho-p90RSK assays were dispensed from source plates containing compounds at 10 mM in 100% (v/v) DMSO or 100% DMSO, directly into assay plates using an Echo 555 Acoustic dispenser (Labcyte Inc™). Depending on the assay, two separate plate preparations were followed. In Workflow A, 10 mM compound stocks were diluted 1:100 using a fixed-tip 96-head Agilent VPrep liquid handler (Agilent Technologies, Santa Clara, Calif.) to give four intermediate dilutions (10 mM, 100 μM, 1 μM, 10 nM). In Workflow B, 10 mM compound stocks were diluted 1:10 using a Tecan Freedom Evo (Tecan Group Ltd., Switzerland), and then 1:100 using the Echo 555 and Labcyte LX to produce three intermediate dilutions across three Labcyte qualified source plates (1 mM, 10 μM, 100 nM). These intermediate dilution plates were then used by the Echo 555 to generate final assay-ready compound plates with a 12 point dose range (10, 3, 1, 0.25, 0.1, 0.03, 0.01, 0.0025, 0.001, 0.0003, 0.0001, 0.0000125 μM) in order to calculate compound IC50s, with a total DMSO concentration in the assay of 1%. For the ERK2 Mass Spectrometry assay Workflow B was used. For the A375 phospho-p90RSK cell assay, the intermediate 1:100 dilution plate described in Workflow A was used by the Echo to dispense compounds and DMSO directly into the cell plates with a 12 point dose range (30, 10, 3.125, 1.25, 0.3, 0.1, 0.03125, 0.0125, 0.003, 0.001, 0.0003125, 0.00003 μM) in order to calculate compound IC50's, with a total DMSO concentration in the assay of 0.3%.
ERK2 Rapidfire Mass Spectrometry Inhibition of Catalysis Assay
MEK U911-activated ERK2 protein was expressed and purified in-house. Enzyme and substrate solutions were made up in assay buffer consisting of 50 mM Tris (pH 7.5), 10 mM MgCl2, 0.1 mM EGTA (ethylene glycol tetraacetic acid), 10 mM DTT (dithiothreitol) and 0.01% (v/v) CHAPS (3-[(3-Cholamidopropyl)dimethylammonio]-1-propanesulfonate). 1.2 nM ERK2 protein was prepared in assay buffer and 10 μl was dispensed into each well of a polypropylene, 384-well plate (#781201, Greiner) containing test and reference control compounds. […] The reaction was allowed to progress for 20 minutes at room temperature before being quenched by the addition of 80 al 1% (v/v) formic acid. The assay plates were then run on the RapidFire Mass Spectrometry platform (Agilent) to measure substrate (unphosphorylated Erktide) and product (phosphorylated Erktide) levels. Data was analysed and IC50's (half maximal inhibitory concentration) were calculated using Genedata Screener® software.

[1] = tested on: phospho-p90RSK in A375 cell line; experiment: A375 Phospho-p90RSK Cellular Assay; format: cell-based, human; details: Homo sapiens, A375 cells, 2 hours incubation
Protocol: as §1
A375 Phospho-p90RSK Cellular Assay
A375 cells were cultured in cell media composed of DMEM (Dulbecco's modified Eagle's medium), 10% (v/v) Foetal Calf Serum and 1% (v/v) L-Glutamine. After harvesting, cells were dispensed into black, 384-well Costar plates (#3712, Corning) to give 2400 cells per well in a total volume of 40 μl cell media, and were incubated overnight at 37° C., 90% relative humidity and 5% CO2 in a rotating incubator. Test compounds and reference controls were dosed directly into the cell plates using a Labcyte Echo 555 acoustic dispenser. The cell plates were then incubated for 2 hours at 37° C. before being fixed by the addition of 20 μl 12% formaldehyde in PBS/A (4% final concentration), followed by a 20 minute room temperature incubation, and then a 2× wash with 150 μl PBS/A (phosphate buffered saline containing albumin) using a BioTek ELx405 platewasher. Cells were permeabilised with 20 μl 0.1% Triton X-100 in PBS/A for 20 minutes at room temperature, and then washed 1× with 100 μl PBS/A. Primary phospho-p90RSK (Thr359) (D1E9) rabbit monoclonal antibody (#8753, Cell Signaling Technology) was diluted 1:1000 in assay buffer (0.05% (v/v) Tween, 5% (v/v) Foetal Calf Serum, in PBS/A), 20 μl added per well, and plates were incubated at 4° C. overnight. Cell plates were washed 2× with 200 μl PBS/T (phosphate buffered saline containing Tween-20), then 20 μl 1:500 dilution in assay buffer of Alexa Fluor® 647 goat anti-rabbit IgG secondary antibody (#A31573, Molecular Probes, Life Technologies), with a 1:5000 dilution of Hoechst 33342, was added per well. Following a 90 minute incubation at room temperature, plates were washed 2× with 200 μl PBS/T, and 40 μl PBS/A was added per well. Stained cell plates were covered with black lid seals, and then read on a Cellomics ArrayScan™ VTI imaging platform (Thermo Scientific), using an XF53 filter with 10× objective, with a LED light source set-up to analyse nuclear staining with Hoechst 33342 (405 nm) and secondary antibody staining of phospho-p90RSK (647 nm). Data was analysed and IC50's were calculated using Genedata Screener® software.

T1 sequence (P28482 whole entry): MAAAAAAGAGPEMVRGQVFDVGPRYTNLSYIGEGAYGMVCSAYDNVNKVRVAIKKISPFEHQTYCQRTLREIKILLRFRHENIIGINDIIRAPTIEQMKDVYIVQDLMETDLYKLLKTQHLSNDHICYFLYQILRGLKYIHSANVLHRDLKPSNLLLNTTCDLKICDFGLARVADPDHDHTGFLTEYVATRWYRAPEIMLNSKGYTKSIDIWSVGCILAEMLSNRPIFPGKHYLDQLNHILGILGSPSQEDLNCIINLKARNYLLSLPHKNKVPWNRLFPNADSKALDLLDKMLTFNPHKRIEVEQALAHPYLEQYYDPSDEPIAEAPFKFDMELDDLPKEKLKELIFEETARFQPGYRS

Row | IC50 (ERK2) [nM] | IC50 ([1]; A-375) [nM] | IC50 ([1]; A-375, 2 h) [nM] | SMILES
1 | 0.3 | 24 |  | Cc1cnc(Nc2ccnn2C)nc1-c1cn2c(n1)C(=O)N(Cc1cccc(C(F)F)c1)CC2 [Example 14, 7-(3-(Difluoromethyl)benzyl)-2-(5-methyl-2-((1-methyl-1H-pyrazol-5-yl)amino)pyrimidin-4-yl)-6,7-dihydroimidazo[1,2-a]pyrazin-8(5H)-one]
2 | 17.4 | 17000 |  | Cc1cccc(CN2CCn3cc(-c4ccnc(Nc5ccnn5C)n4)nc3C2=O)n1 [Example 1, 2-(2-((1-Methyl-1H-pyrazol-5-yl)amino)pyrimidin-4-yl)-7-((6-methylpyridin-2-yl)methyl)-6,7-dihydroimidazo[1,2-a]pyrazin-8(5H)-one]
3 | 1.5 | 130 |  | COC[C@H]1Cn2cc(-c3nc(Nc4ccnn4C)ncc3C)nc2C(=O)N1Cc1cccc(OC)c1 [Example 41, (R)-7-(3-Methoxybenzyl)-6-(methoxymethyl)-2-(5-methyl-2-((1-methyl-1H-pyrazol-5-yl)amino)pyrimidin-4-yl)-6,7-dihydroimidazo[1,2-a]pyrazin-8(5H)-one]
4 | 0.5 | 5.3 |  | Cc1cnc(Nc2ccnn2C)nc1-c1cn2c(n1)C(=O)N(Cc1cccc(Cl)c1)[C@@H](C)C2 [Example 19, (S)-7-(3-Chlorobenzyl)-6-methyl-2-(5-methyl-2-((1-methyl-1H-pyrazol-5-yl)amino)pyrimidin-4-yl)-6,7-dihydroimidazo[1,2-a]pyrazin-8(5H)-one]
5 | 0.6 | 40 |  | COc1cccc(CN2C(=O)c3nc(-c4nc(Nc5ccnn5C)ncc4C)cn3C[C@@H]2C)c1 [Example 23, (S)-7-(3-Methoxybenzyl)-6-methyl-2-(5-methyl-2-((1-methyl-1H-pyrazol-5-yl)amino)pyrimidin-4-yl)-6,7-dihydroimidazo[1,2-a]pyrazin-8(5H)-one]
6 | 0.7 | 8 |  | COC[C@H]1Cn2cc(-c3nc(Nc4ccnn4C)ncc3C)nc2C(=O)N1Cc1cccc(C(F)F)c1 [Example 38, (R)-7-(3-(Difluoromethyl)benzyl)-6-(methoxymethyl)-2-(5-methyl-2-((1-methyl-1H-pyrazol-5-yl)amino)pyrimidin-4-yl)-6,7-dihydroimidazo[1,2-a]pyrazin-8(5H)-one]
7 | 0.4 |  | 38 | Cc1cnc(Nc2ccnn2C)nc1-c1cn2c(n1)C(=O)N(Cc1ccc(F)c(F)c1)[C@@H](C)C2 [Example 20, (S)-7-(3,4-Difluorobenzyl)-6-methyl-2-(5-methyl-2-((1-methyl-1H-pyrazol-5-yl)amino)pyrimidin-4-yl)-6,7-dihydroimidazo[1,2-a]pyrazin-8(5H)-one]
8 |  | 93 |  | COC[C@@H]1Cn2cc(-c3nc(Nc4ccnn4C)ncc3C)nc2C(=O)N1Cc1ccc(F)c(F)c1 [Example 35, Ethanesulfonic acid adduct of (S)-7-(3,4-difluorobenzyl)-6-(methoxymethyl)-2-(5-methyl-2-((1-methyl-1H-pyrazol-5-yl)amino)pyrimidin-4-yl)-6,7-dihydroimidazo[1,2-a]pyrazin-8(5H)-one]
9 | 0.5 | 81 |  | C[C@H]1Cn2cc(-c3ccnc(Nc4ccnn4C)n3)nc2C(=O)N1Cc1ccc(F)c(Cl)c1 [Example 3, (S)-7-(3-Chloro-4-fluorobenzyl)-6-methyl-2-(2-((1-methyl-1H-pyrazol-5-yl)amino)pyrimidin-4-yl)-6,7-dihydroimidazo[1,2-a]pyrazin-8(5H)-one]
10 | 0.5 | 190 |  | C[C@H]1Cn2cc(-c3nc(Nc4ccnn4C)ncc3Cl)nc2C(=O)N1Cc1cccc(C(F)F)n1 [Example 9, (S)-2-(5-Chloro-2-((1-methyl-1H-pyrazol-5-yl)amino)pyrimidin-4-yl)-7-((6-(difluoromethyl)pyridin-2-yl)methyl)-6-methyl-6,7-dihydroimidazo[1,2-a]pyrazin-8(5H)-one]
11 | 0.7 | 200 |  | Cc1cnc(Nc2ccnn2C)nc1-c1cn2c(n1)C(=O)N(Cc1ccnc(C(F)(F)F)c1)[C@@H](C)C2 [Example 30, (S)-6-Methyl-2-(5-methyl-2-((1-methyl-1H-pyrazol-5-yl)amino)pyrimidin-4-yl)-7-((2-(trifluoromethyl)pyridin-4-yl)methyl)-6,7-dihydroimidazo[1,2-a]pyrazin-8(5H)-one]
12 | 1.4 | 51 |  | Cc1cnc(Nc2ccnn2C)nc1-c1cn2c(n1)C(=O)N(Cc1cccc(C(F)(F)F)n1)[C@H](C)C2 [Example 36, (R)-6-Methyl-2-(5-methyl-2-((1-methyl-1H-pyrazol-5-yl)amino)pyrimidin-4-yl)-7-((6-(trifluoromethyl)pyridin-2-yl)methyl)-6,7-dihydroimidazo[1,2-a]pyrazin-8(5H)-one]
13 | 0.8 | 140 |  | Cc1cnc(Nc2ccnn2C)nc1-c1cn2c(n1)C(=O)N(Cc1cc(C(F)F)ccn1)[C@@H](C)C2 [Example 31, (S)-7-((4-(Difluoromethyl)pyridin-2-yl)methyl)-6-methyl-2-(5-methyl-2-((1-methyl-1H-pyrazol-5-yl)amino)pyrimidin-4-yl)-6,7-dihydroimidazo[1,2-a]pyrazin-8(5H)-one]
14 | 0.8 | 150 |  | Cc1cccc(CN2C(=O)c3nc(-c4nc(Nc5ccnn5C)ncc4Cl)cn3C[C@@H]2C)n1 [Example 11, (S)-2-(5-chloro-2-((1-methyl-1H-pyrazol-5-yl)amino)pyrimidin-4-yl)-6-methyl-7-((6-methylpyridin-2-yl)methyl)-6,7-dihydroimidazo[1,2-a]pyrazin-8(5H)-one]
15 | 0.3 |  | 12 | Cc1cnc(Nc2ccnn2C)nc1-c1cn2c(n1)C(=O)N(Cc1cccc(Cl)c1)CC2 [Example 13, 7-(3-Chlorobenzyl)-2-(5-methyl-2-((1-methyl-1H-pyrazol-5-yl)amino)pyrimidin-4-yl)-6,7-dihydroimidazo[1,2-a]pyrazin-8(5H)-one]
16 | 1.1 | 200 |  | Cc1cnc(Nc2ccnn2C)nc1-c1cn2c(n1)C(=O)N(Cc1ccnc(C(F)(F)F)n1)[C@@H](C)C2 [Example 26, (S)-6-methyl-2-(5-methyl-2-((1-methyl-1H-pyrazol-5-yl)amino)pyrimidin-4-yl)-7-((2-(trifluoromethyl)pyrimidin-4-yl)methyl)-6,7-dihydroimidazo[1,2-a]pyrazin-8(5H)-one]
17 | 0.7 | 130 |  | Cc1cnc(Nc2ccnn2C)nc1-c1cn2c(n1)C(=O)N(Cc1cccc(C(F)F)n1)[C@@H](C)C2 [Example 25, (S)-7-((6-(Difluoromethyl)pyridin-2-yl)methyl)-6-methyl-2-(5-methyl-2-((1-methyl-1H-pyrazol-5-yl)amino)pyrimidin-4-yl)-6,7-dihydroimidazo[1,2-a]pyrazin-8(5H)-one]
